Experimental data: US9650339B2, “Inhibitors of histone demethylases” (Gilead Sciences, Inc., priority 2013, dated 2017)

Experiments:
KDM5B = molecular target: T1, KDM5B (Homo sapiens, UniProt Q9UGL1); assay: Histone lysine demethylase immunofluorescence assay, U2OS cells transfected with KDM5B; assay type: cell-based; settings: U2OS cells transfected with pCMVHA KDM5B; mark detected H3K4me2; 20 hours
T1 construct: (a.a. 1-752); host or cells: U2OS
T1 sequence (Q9UGL1 1-752): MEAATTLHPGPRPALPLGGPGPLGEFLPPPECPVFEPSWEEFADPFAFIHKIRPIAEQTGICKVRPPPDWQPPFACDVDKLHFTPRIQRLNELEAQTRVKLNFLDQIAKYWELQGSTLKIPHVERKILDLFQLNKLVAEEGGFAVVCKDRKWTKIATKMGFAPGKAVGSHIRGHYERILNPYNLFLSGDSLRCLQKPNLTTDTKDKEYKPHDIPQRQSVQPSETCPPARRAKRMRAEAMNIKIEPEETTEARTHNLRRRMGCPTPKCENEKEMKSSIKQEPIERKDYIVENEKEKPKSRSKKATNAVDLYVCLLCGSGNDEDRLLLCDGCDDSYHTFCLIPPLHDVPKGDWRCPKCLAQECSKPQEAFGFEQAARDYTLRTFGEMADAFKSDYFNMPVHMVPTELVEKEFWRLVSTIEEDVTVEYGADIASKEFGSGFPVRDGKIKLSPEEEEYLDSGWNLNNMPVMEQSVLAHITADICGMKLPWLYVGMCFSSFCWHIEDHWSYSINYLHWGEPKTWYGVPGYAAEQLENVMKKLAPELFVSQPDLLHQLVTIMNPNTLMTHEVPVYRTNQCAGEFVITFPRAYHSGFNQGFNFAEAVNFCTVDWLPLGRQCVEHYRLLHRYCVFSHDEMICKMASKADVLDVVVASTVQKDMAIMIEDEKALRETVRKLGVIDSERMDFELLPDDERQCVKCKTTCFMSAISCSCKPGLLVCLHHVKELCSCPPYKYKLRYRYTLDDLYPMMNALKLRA
Description: (§1) U2OS cells were seeded 24 hours before transfection. Transfection was performed with Fugene HD transfection reagent as recommended by the manufacturer. 6 hours after transfection, the cells were harvested and seeded into multi well plates into media containing compound. The media used was DMEM containing 10% FBS and pen/strep. 20 hours after incubation of cells with compounds, the cells were washed in PBS, harvested by fixation with formaldehyde 4% aqueous solution, and washed in PBS. Subsequently, the cells were permeabilized in PBS with 0.2% Triton X-100 for. Blocking was performed in PBS with 0.2% Triton X-100 and 5% FBS. The cells were incubated with primary antibodies in blocking solution over night at 4° C. The primary antibodies used in the assays were HA.11 (Covance, MMS-101P) and the antibody detecting the mark specified in the table below. After incubation with primary antibodies, the cells were washed with PBS, incubated with secondary antibodies (Alexa fluor 594 goat anti rabbit IgG, Invitrogen, A11012; Alexa flour 488 donkey anti mouse IgG, Invitrogen, A21202) and Hoechst, (Sigma, 33342) in blocking solution, and washed again with PBS. Finally, PBS was added and high throughput imaging and analysis were performed by an IN Cell Analyzer 1000 (GE Healthcare). The robot software analyzed individual cells and divided these into HA+ (transfected cells) and HA− (non-transfected cells). The IC50 values were based on an average measure of the staining of the mark specified in the table below in the transfected cells.

KDM2A = molecular target: T2, KDM2A (Homo sapiens, UniProt Q9Y2K7); assay: Histone lysine demethylase immunofluorescence assay, U2OS cells transfected with KDM2A; assay type: cell-based; settings: U2OS cells transfected with pCMVHA KDM2A; mark detected H3K36me2; 20 hours
T2 construct: Full length; host or cells: U2OS
T2 sequence (Q9Y2K7 1-1162): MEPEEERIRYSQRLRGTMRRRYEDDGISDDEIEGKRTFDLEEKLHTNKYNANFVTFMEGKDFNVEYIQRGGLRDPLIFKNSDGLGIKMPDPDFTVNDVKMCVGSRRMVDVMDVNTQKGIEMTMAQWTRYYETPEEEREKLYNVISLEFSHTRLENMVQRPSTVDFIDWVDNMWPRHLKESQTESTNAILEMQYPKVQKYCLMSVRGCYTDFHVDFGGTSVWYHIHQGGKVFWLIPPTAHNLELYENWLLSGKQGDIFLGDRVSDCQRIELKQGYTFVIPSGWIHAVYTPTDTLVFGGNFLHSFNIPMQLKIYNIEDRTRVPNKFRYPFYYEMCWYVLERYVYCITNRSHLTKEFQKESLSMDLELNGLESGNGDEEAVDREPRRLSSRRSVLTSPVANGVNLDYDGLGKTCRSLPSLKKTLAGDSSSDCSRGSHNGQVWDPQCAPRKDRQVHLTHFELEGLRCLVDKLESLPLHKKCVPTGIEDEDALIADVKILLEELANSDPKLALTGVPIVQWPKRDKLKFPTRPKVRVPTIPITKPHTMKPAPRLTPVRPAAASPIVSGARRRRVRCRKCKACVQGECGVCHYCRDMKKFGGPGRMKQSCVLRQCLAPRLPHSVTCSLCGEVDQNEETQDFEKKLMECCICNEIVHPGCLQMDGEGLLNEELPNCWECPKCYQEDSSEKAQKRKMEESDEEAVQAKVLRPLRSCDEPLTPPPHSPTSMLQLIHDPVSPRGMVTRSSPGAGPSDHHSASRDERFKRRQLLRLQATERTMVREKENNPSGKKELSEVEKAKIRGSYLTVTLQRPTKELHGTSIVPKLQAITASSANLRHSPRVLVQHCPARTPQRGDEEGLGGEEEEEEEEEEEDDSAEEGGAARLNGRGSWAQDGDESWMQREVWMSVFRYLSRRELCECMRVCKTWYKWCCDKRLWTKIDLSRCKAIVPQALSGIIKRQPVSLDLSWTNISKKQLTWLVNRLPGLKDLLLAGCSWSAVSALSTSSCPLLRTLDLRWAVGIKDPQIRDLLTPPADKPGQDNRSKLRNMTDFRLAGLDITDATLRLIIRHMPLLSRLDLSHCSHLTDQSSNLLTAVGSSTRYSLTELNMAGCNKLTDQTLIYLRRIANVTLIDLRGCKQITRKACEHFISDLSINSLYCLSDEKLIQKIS
Description: as §1

KDM4C = molecular target: T3, KDM4C (Homo sapiens, UniProt Q9H3R0); assay: Histone lysine demethylase immunofluorescence assay, U2OS cells transfected with KDM4C; assay type: cell-based; settings: U2OS cells transfected with pCMVHA KDM4C; mark detected H3K9me3; 20 hours
T3 construct: Full length; host or cells: U2OS
T3 sequence (Q9H3R0 1-1056): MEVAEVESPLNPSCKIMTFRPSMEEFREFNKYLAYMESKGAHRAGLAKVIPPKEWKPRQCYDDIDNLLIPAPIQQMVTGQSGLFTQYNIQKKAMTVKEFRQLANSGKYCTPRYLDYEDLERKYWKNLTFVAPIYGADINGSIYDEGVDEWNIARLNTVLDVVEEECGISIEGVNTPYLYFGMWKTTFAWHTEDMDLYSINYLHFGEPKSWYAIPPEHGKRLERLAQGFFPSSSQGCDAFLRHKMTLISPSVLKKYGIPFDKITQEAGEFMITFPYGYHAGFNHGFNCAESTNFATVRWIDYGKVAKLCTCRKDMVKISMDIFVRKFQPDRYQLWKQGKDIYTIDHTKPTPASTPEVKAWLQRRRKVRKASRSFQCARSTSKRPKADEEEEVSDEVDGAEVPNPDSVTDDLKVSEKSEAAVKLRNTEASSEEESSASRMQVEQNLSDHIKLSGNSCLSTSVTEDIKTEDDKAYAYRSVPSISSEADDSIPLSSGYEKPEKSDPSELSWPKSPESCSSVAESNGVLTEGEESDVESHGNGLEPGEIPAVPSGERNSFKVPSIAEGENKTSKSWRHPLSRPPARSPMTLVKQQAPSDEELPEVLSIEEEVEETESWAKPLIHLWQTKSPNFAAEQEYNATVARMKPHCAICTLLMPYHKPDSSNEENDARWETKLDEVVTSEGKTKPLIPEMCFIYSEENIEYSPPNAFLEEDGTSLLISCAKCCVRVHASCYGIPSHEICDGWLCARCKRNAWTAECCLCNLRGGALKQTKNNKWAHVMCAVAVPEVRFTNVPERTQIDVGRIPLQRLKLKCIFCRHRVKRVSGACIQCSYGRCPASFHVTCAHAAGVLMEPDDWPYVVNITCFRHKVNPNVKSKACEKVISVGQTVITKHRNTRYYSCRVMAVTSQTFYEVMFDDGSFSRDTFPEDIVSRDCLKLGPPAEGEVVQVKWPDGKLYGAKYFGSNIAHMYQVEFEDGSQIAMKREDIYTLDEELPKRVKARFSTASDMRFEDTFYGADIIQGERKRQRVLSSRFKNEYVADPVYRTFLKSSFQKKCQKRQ
Description: as §1

[1] = system: OPM-2 subcutaneous mouse xenograft model of multiple myeloma; assay: Inhibition of tumor growth in mouse xenograft model; assay type: in vivo, NOD/SCID mice (Mus Musculus); settings: QD × 4/week × 2
Text: Briefly, NOD/SCID mice γ-irradiated with ^60Co (200 rad) (12 animals/group) were inoculated subcutaneously with 8×10^6 OPM-2 cells assisted with Matrigel. Dosing according to the table below started when tumors reached an average size of ˜100 mm^3 (day 15). Dosing continued until the average size of tumors in the vehicle group reached ˜2000 mm^3 (day 31).
Animals were 7 weeks old female NOD/SCID mice (Mus Musculus), supplied by Beijing HFK Bio-Technology Co. Ltd. (Beijing, china). Body weight was approx. 16-23 g. Before commencement of treatment, all animals were weighed and tumor volumes were measured, and mice were assigned into groups using randomized block design based upon their tumor volumes.
OPM-2 tumor cells were maintained in vitro in RPMI1640 medium supplemented with 20% fetal bovine serum at 37° C. in an atmosphere of 5% CO2 in air. The tumor cells were routinely subcultured twice weekly. The cells growing in an exponential growth phase were harvested and counted for tumor inoculation.
Tumor sizes were measured three times weekly in two dimensions using a caliper, and the volume was expressed in mm^3 using the formula: V=0.5 a×b^2 where a and b were the long and short diameters of the tumor, respectively.

## CN(CCc1ccccc1)C(=O)CNCc1cc(/C=N/CCO)ccn1 [Compound 96, 2-[{4-[([(2-hydroxyethyl)imino]-methyl]pyridin-2-yl}methyl)amino]-N-methyl-N-(2-phenylethyl)acetamide]
KDM5B
  IC50: > 2500 nM
KDM2A
  IC50: > 2500 nM
KDM4C
  IC50: > 2500 nM

## Nc1cccc2c1CN(C1CCC(=O)NC1=O)C2=O (centres unmarked) [Lenolidomide, reference compound]
[1]; day 15 after inoculation (start of dosing)
  Tumor Volume: 101 ± 12 mm^3
[1]; day 17 after inoculation
  Tumor Volume: 156 ± 26 mm^3
[1]; day 19 after inoculation
  Tumor Volume: 178 ± 36 mm^3
[1]; day 21 after inoculation
  Tumor Volume: 266 ± 56 mm^3
[1]; day 24 after inoculation
  Tumor Volume: 395 ± 92 mm^3
[1]; day 26 after inoculation
  Tumor Volume: 509 ± 116 mm^3
[1]; day 28 after inoculation
  Tumor Volume: 767 ± 169 mm^3
[1]; day 31 after inoculation
  Tumor Volume: 1148 ± 175 mm^3
